Assay results published in patent US20240391871A1, “SUBSTITUTED HYDROXYMETHYL PYRROLIDINES AND MEDICAL USES THEREOF” (ATROGI AB, priority 2021, published 2024).
Where a name gives a salt, the structure may show the parent alone.

Experiments:
Format in all cases: cell-based
L6-myotubes [1] = assay: Glucose uptake (3H-2-deoxyglucose) in differentiated L6-myotubes; details: compound 1×10^−5 M; for Emax at 10 µM: read-out: Biological example 1: glucose uptake, activity compared to that of isoproterenol
Experimental: (§1) L6-myoblasts were grown in Dulbecco's Modified Eagle's Medium (DMEM) containing 1 g/L glucose supplemented with 10% fetal bovine serum, 2 mM L-Glutamine, 50 U/mL penicillin, 50 μg/mL streptomycin and 10 mM HEPES. Cells were plated at 1×10^5 cells per mL in 24-well plates. After reaching 90% confluence the cells were grown in medium containing 2% FBS for 7 days where upon cells differentiated into myotubes.
Differentiated L6-myotubes were serum-starved overnight in medium containing 0.5% fatty-acid free BSA and stimulated with an agonist, with a final concentration of 1×10^−5 M. After 1 h 40 min the cells were washed with warm glucose free medium or PBS twice and another portion of agonist was added to the glucose free medium. After 20 min the cells were exposed to 50 nM ^3H-2-deoxyglucose for 10 min before washed with ice cold glucose free medium or PBS three times and lysed with 0.2 M NaOH, 400 μL/well, for 1 h at 60° C. The cell lysate was mixed with 4 mL scintillation buffer (Emulsifier Safe, Perkin Elmer) and the radioactivity was detected in a β-counter (Tri-Carb 4810TR, Perkin Elmer). The activity for each compound is compared to that of isoproterenol.

[2] = test system: Intracellular cAMP levels; assay: Measurement of intracellular cAMP levels in differentiated L6 cells; details: compound 1×10^−5 M, 15 min; for Emax at 10 µM: Rattus norvegicus, L6, 0.25 h, read-out: Biological example 2: intracellular cAMP levels, activity compared to that of isoproterenol
Experimental: as §1
Differentiated cells were serum-starved overnight and stimulated with an agonist, final concentration 1×10^−5 M, for 15 min in stimulation buffer (HBSS supplemented with 1% BSA, 5 mM HEPES and 1 mM IBMX, pH 7.4). The medium was aspirated and 100 μL of 95% EtOH was added to each well of the 24-well plate and cells were kept at −20° C. overnight. The EtOH was allowed to evaporate and 500 μL of lysis buffer (1% BSA, 5 mM HEPES and 0.3% Tween-20, pH 7.4) was added to each well. The plate was kept at −80° C. for 30 min and then at −20° C. until the day of detection when the samples were thawed. Intracellular cAMP levels were detected using an alpha screen cAMP kit (6760635D from Perkin Elmer). The activity for each compound is compared to that of isoproterenol.

L6-myotubes [3] = assay: Glucose uptake in L6-myotubes in the presence of the β2-antagonist ICI-118,551; details: compound 1×10^−5 M, ICI-118,551 1×10^−5 M
Experimental: as §1
Differentiated L6-myotubes were serum-starved overnight in medium containing 0.5% fatty-acid free BSA and were incubated with the β2-adrenergic receptor antagonist ICI-118,551 at a final concentration of 1×10^−5 M for 30 min. The cells were stimulated with a compound of the invention, at a final concentration of 1×10^−5 M. After 1 h 40 min the cells were washed twice with warm, glucose free medium or PBS and additional portions of the compound of the invention and the antagonist were added. After 20 min the cells were exposed to 50 nM ^3H-2-deoxyglucose for 10 min before washed with ice cold glucose free medium or PBS three times and lysed with 0.2 M NaOH, 400 μL/well, for 1 h at 60° C. The cell lysate was mixed with 4 mL scintillation buffer (Emulsifier Safe, Perkin Elmer) and the radioactivity was detected in a β-counter (Tri-Carb 4810TR, Perkin Elmer). The activity for each compound is compared to that of isoproterenol.

CO[C@H]1CC[C@H](C[C@@H]2CC[C@H]([C@H](O)c3cccc(F)c3)N2)CC1.Cl [Example 1, (R)-(3-Fluorophenyl)((2R,5S)-5-(((1r,4S)-4-methoxycyclohexyl)methyl) -pyrrolidin-2-yl)methanol hydrochloride]
Biological example 1: glucose uptake, activity compared to that of isoproterenol (L6-myotubes [1]): +++ (more than 75% of that of isoproterenol)
Biological example 2: intracellular cAMP levels, activity compared to that of isoproterenol [2]: − (less than 25%)
Biological example 3: glucose uptake in the presence of the β2-antagonist ICI-118,551, activity compared to that of isoproterenol (L6-myotubes [3]): − (less than 25%)

CO[C@H]1CC[C@H](C[C@@H]2CC[C@H]([C@@H](O)c3cccc(F)c3)N2)CC1.Cl [Example 2, (S)-(3-Fluorophenyl)((2R,5S)-5-(((1r,4S)-4-methoxycyclohexyl) -methyl)pyrrolidin-2-yl)methanol hydrochloride]
Biological example 1: glucose uptake, activity compared to that of isoproterenol (L6-myotubes [1]): +++ (more than 75% of that of isoproterenol)
Biological example 2: intracellular cAMP levels, activity compared to that of isoproterenol [2]: − (less than 25%)
Biological example 3: glucose uptake in the presence of the β2-antagonist ICI-118,551, activity compared to that of isoproterenol (L6-myotubes [3]): − (less than 25%)

CO[C@H]1CC[C@H](C[C@H]2CC[C@H]([C@H](O)c3cccc(F)c3)N2)CC1.Cl [Example 3, (R)-(3-Fluorophenyl)((2R,5R)-5-(((1r,4R)-4-methoxycyclohexyl)-methyl) -pyrrolidin-2-yl)methanol hydrochloride]
Biological example 1: glucose uptake, activity compared to that of isoproterenol (L6-myotubes [1]): +++ (more than 75% of that of isoproterenol)
Biological example 2: intracellular cAMP levels, activity compared to that of isoproterenol [2]: − (less than 25%)
Biological example 3: glucose uptake in the presence of the β2-antagonist ICI-118,551, activity compared to that of isoproterenol (L6-myotubes [3]): − (less than 25%)

CO[C@H]1CC[C@H](C[C@@H]2CC[C@H]([C@H](O)c3ccccc3F)N2)CC1.Cl [Example 5]
Biological example 3: glucose uptake in the presence of the β2-antagonist ICI-118,551, activity compared to that of isoproterenol (L6-myotubes [3]): − (less than 25%)

CO[C@H]1CC[C@H](C[C@H]2CC[C@H]([C@H](O)c3ccccc3F)N2)CC1.Cl [Example 7, (R)-(2-Fluorophenyl)((2R,5R)-5-(((1r,4S)-4-methoxycyclohexyl)methyl) -pyrrolidin-2-yl)methanol hydrochloride]
Emax at 10 µM (L6-myotubes [1]): > 75%
Emax at 10 µM [2]: 25 to 50%
Biological example 3: glucose uptake in the presence of the β2-antagonist ICI-118,551, activity compared to that of isoproterenol (L6-myotubes [3]): − (less than 25%)

CC(=O)N[C@H]1CC[C@H](C[C@@H]2CC[C@H]([C@H](O)c3cccc(F)c3)N2)CC1.Cl [Example 42, N-((1S,4r)-4-(((2S,5R)-5-((R)-(3-Fluorophenyl)(hydroxy)methyl)pyrrolidin-2-yl)methyl)cyclohexyl)acetamide hydrochloride]
Biological example 1: glucose uptake, activity compared to that of isoproterenol (L6-myotubes [1]; hydrochloride): ++ (between 75 and 50%)
Biological example 2: intracellular cAMP levels, activity compared to that of isoproterenol [2]: − (less than 25%)

CC(=O)N(Cc1ccccc1)[C@H]1CC[C@H](C[C@@H]2CC[C@H]([C@@H](O)c3cccc(F)c3)N2)CC1 [Example 43, N-Benzyl-N-((1S,4r)-4-(((2S,5R)-5-((S)-(3-fluorophenyl)(hydroxy)methyl) -pyrrolidin-2-yl)methyl)cyclohexyl)acetamide hydrochloride]
Emax at 10 µM (L6-myotubes [1]): 50 to 75%
Emax at 10 µM [2]: < 25%

CC(=O)N[C@H]1CC[C@H](C[C@@H]2CC[C@H]([C@@H](O)c3cccc(F)c3)N2)CC1 [Example 44, N-((1S,4r)-4-(((2S,5R)-5-((S)-(3-Fluorophenyl)(hydroxy)methyl)pyrrolidin-2-yl)methyl)cyclohexyl)acetamide hydrochloride]
Emax at 10 µM (L6-myotubes [1]): 50 to 75%
Emax at 10 µM [2]: < 25%

CS(=O)(=O)N(Cc1ccccc1)[C@H]1CC[C@H](C[C@@H]2CC[C@H]([C@H](O)c3cccc(F)c3)N2)CC1 [Example 45, N-Benzyl-N-((1S,4r)-4-(((2S,5R)-5-((R)-(3-fluorophenyl)(hydroxy) -methyl)pyrrolidin-2-yl)methyl)cyclohexyl)methanesulfonamide hydrochloride]
Emax at 10 µM (L6-myotubes [1]): < 25%
Emax at 10 µM [2]: < 25%

CS(=O)(=O)N[C@H]1CC[C@H](C[C@@H]2CC[C@H]([C@H](O)c3cccc(F)c3)N2)CC1 [Example 46, N-((1S,4r)-4-(((2S,5R)-5-((R)-(3-Fluorophenyl)(hydroxy)methyl)pyrrolidin-2-yl)methyl)cyclohexyl)methanesulfonamide hydrochloride]
Emax at 10 µM (L6-myotubes [1]): > 75%
Emax at 10 µM [2]: < 25%

CS(=O)(=O)N(Cc1ccccc1)[C@H]1CC[C@H](C[C@@H]2CC[C@H]([C@@H](O)c3cccc(F)c3)N2)CC1 [Example 47, N-Benzyl-N-((1S,4r)-4-(((2S,5R)-5-((S)-(3-fluorophenyl)(hydroxy) -methyl)pyrrolidin-2-yl)methyl)cyclohexyl)methanesulfonamide hydrochloride]
Emax at 10 µM (L6-myotubes [1]): < 25%
Emax at 10 µM [2]: < 25%

CS(=O)(=O)N[C@H]1CC[C@H](C[C@@H]2CC[C@H]([C@@H](O)c3cccc(F)c3)N2)CC1 [Example 48, N-((1S,4r)-4-(((2S,5R)-5-((S)-(3-Fluorophenyl)(hydroxy)methyl)pyrrolidin-2-yl)methyl)cyclohexyl)methanesulfonamide hydrochloride]
Emax at 10 µM (L6-myotubes [1]): 50 to 75%
Emax at 10 µM [2]: < 25%
